Measurements from paper PMC3256212, “Mechanism and Function of Drosophila capa GPCR: A Desiccation Stress-Responsive Receptor with Functional Homology to Human NeuromedinU Receptor” (PLoS ONE, 2012).
Peptide text beside a SMILES is read from it.

Legend:
capaR (CG14575) = biological target: T1, capaR (CG14575) (Drosophila melanogaster, UniProt Q8ITC7); assay: [Ca2+]i (aequorin) in capaR-transfected S2 cells; type: cell-based; settings: capaR S2 cells; N = 3 (Fig. 3D); read-out: EC50, [Ca2+]i via capaR
T1 construct: The ORF of capaR was amplified from whole fly cDNA as template; expressed in transfected cells; host or cells: Drosophila S2 cells (pMT/V5-His TOPO, CuSO4 induction)
T1 sequence (Q8ITC7 1-477): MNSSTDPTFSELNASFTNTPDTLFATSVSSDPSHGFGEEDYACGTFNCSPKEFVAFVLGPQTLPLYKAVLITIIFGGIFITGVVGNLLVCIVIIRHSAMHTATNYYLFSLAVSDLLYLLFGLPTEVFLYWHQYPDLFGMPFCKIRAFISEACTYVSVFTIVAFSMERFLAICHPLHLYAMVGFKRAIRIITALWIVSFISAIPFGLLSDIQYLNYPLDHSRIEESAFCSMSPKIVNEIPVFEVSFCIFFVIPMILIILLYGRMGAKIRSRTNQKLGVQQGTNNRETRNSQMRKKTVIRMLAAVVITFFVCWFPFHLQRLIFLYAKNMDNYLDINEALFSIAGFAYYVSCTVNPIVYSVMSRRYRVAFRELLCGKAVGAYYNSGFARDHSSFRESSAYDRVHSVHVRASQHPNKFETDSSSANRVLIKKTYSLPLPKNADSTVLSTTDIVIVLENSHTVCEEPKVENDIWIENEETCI
Text: The ORF of capaR was amplified from whole fly cDNA as template using the primers 5′-[…]-3′ and 5′-[…]-3′ and cloned into pMT/V5-His TOPO vector (Invitrogen). The eYFP ORF was fused in-frame at the C-terminus of the capaR using KpnI and ApaI sites and the tagged construct was cloned into the pMT/V5-His TOPO vector.
(§1) The capa peptides Drm-capa-1 (GANMGLYAFPRVamide), Drm-capa-2 (ASGLVAFPRVamide), Drm-PK-1 (TGPSASSGLWFGPRLamide), Drm-PK-2 (SVPFKPRLamide) and hugin gamma (hugg, pQLQSNGEPAYRVRTPRL-amide) were synthesised as C-terminally amidated peptides (Biomatik Corporation, Canada). Peptides were dissolved in distilled ACN/H2O to a concentration of 1 mM and then diluted to the required working concentration in Schneider's medium (Invitrogen Inc.). Human neuromedin U-25 was purchased from Sigma. Rabbit polyclonal antibody to porcine neuromedinU-8 was purchased from Progen biotechnik (Heidelberg, Germany). Rabbit capa precursor peptide used was described in [21] Rabbit anti-peptide antibody was raised against the capaR epitope (CQQGTNNRETRNSQM) by Genosphere Biotechnologies (Paris, France) and purified on a HiTrap NHS-activated HP column (Amersham Pharmacia Bio-tech; Buckinghamshire, UK) according to the manufacturer's instructions. Immunohistochemistry was carried out as described previously. Mouse anti-GFP primary antibody (Zymed) and the antiserum to neuromedinU-8 were all diluted 1∶1000 or, in the case of the pre-immune serum, the affinity-purified capaR antibody and the antiserum to the capa precursor peptide, 1∶500. Incubations in the primary antibodies were performed overnight. A FITC-conjugated affinity-purified goat anti-mouse antibody (Jackson Immunologicals) was used in a dilution of 1∶1,000 for visualization of the mouse monoclonal anti-GFP. A Texas red-conjugated affinity-purified goat anti-rabbit antibody (Jackson Immunologicals) was used at a dilution of 1∶1,000 for visualization of the rabbit capaR antiserum.
(§2) Drosophila S2 cells, cultured under standard conditions were transiently transfected with the apoaequorin ORF [21] and a receptor ORF construct, and expression induced using CuSO4. Transfected S2 cells were harvested and incubated with 2.5 µM coelenterazine in the dark at RT for 1–2 h as previously described. 25,000 cells were then placed in 135 µl Schneider's medium supplemented with 10% FCS in a well of a white polystyrene 96-well plate (Berthold Technologies). Bioluminescence recordings were carried out using a Mithras LB940 automated 96-well plate reader (Berthold Technologies) and MikroWin software. 15 µl of each of different peptides were applied to final concentrations as required. At the end of each recording samples were disrupted by the addition of 100 µl lysis solution, and the [Ca^2+] concentrations calculated as previously described. For assays in Ca^2+-free medium, transfected cells were collected and pelleted after incubation with coelenterazine. Cell pellets were re-suspended in Ca^2+-free Schneider's medium (Invitrogen Inc.) without FCS and collected by centrifugation. The washing and pelleting procedure was repeated once more. Experiments were then carried out on 25,000 cells per sample as above. To verify whether the observed calcium signal was linked to phospholipase C (PLC) activation, S2-capaR cells were preincubated with the PLC inhibitor U73122 at concentration of 10^−3 M to 10^−8 M for 10 min. Luminometry experiments were carried out on live, intact tubules expressing a targeted transgene for cytosolic-targeted apoaequorin in either principal or stellate cells as previously described, [22]. For in vivo tubule experiments, flies of the following genotypes were used: c42aeq, capaR-GAL4, UAS-capaR, UAS-capaR RNAi, UAS-NMUR 2 and the resulting progeny from GAL4>UAS crosses.

NMU receptor 2 (NMUR 2) = biological target: T2, NMU receptor 2 (NMUR 2) (Homo sapiens, UniProt Q9GZQ4); assay: [Ca2+]i (aequorin) in NMUR 2-transfected S2 cells; type: cell-based; settings: NMUR 2- and apoaequorin-co-transfected S2 cells; N = 3 (Fig. 3D); read-out: EC50, [Ca2+]i via NMUR 2
T2 construct: expressed in transfected cells; host or cells: Drosophila S2 cells (pMT/V5-His TOPO)
Experimental: as §1
as §2, with “Experiments were then carried out on 25,000 cells per sample as above. To verify whether the observed calcium signal was linked to phospholipase C (PLC) activation, S2-capaR cells were preincubated with the PLC inhibitor U73122 at concentration of 10^−3 M to 10^−8 M for 10 min. Luminometry experiments were carried out on live, intact tubules expressing a targeted transgene for cytosolic-targeted apoaequorin in either principal or stellate cells as previously described, [22]. For in vivo tubule experiments, flies of the following genotypes were used: c42aeq, capaR-GAL4, UAS-capaR, UAS-capaR RNAi, UAS-NMUR 2 and the resulting progeny from GAL4>UAS crosses.” left out

T2 sequence (Q9GZQ4 whole entry): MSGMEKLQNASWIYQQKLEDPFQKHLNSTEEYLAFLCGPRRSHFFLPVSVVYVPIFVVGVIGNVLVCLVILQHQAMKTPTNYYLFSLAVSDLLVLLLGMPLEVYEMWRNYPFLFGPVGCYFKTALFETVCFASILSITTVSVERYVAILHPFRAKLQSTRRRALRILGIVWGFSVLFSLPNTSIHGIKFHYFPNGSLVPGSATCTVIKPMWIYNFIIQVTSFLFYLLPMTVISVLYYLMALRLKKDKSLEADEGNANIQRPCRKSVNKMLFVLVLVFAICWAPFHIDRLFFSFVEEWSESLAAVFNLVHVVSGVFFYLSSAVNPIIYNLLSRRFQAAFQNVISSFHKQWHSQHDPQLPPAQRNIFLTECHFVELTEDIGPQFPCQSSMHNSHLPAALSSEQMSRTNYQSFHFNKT

**Q.** Which EC50 (capaR (CG14575)) does the source give for `CC(C)C[C@H](NC(=O)[C@H](Cc1ccccc1)NC(=O)[C@H](Cc1ccc(O)cc1)NC(=O)CNC(=O)[C@H](CCCNC(=N)N)NC(=O)[C@H](CO)NC(=O)[C@H](CCC(N)=O)NC(=O)[C@H](CO)NC(=O)[C@H](C)NC(=O)[C@H](Cc1ccccc1)NC(=O)[C@@H]1CCCN1C(=O)[C@H](CO)NC(=O)[C@H](CCC(N)=O)NC(=O)[C@H](Cc1ccccc1)NC(=O)[C@H](CCC(=O)O)NC(=O)[C@H](CCC(=O)O)NC(=O)[C@H](CC(=O)O)NC(=O)[C@@H](NC(=O)[C@H](CCCNC(=N)N)NC(=O)[C@@H](N)Cc1ccccc1)C(C)C)C(=O)N[C@@H](Cc1ccccc1)C(=O)N[C@@H](CCCNC(=N)N)C(=O)N1CCC[C@H]1C(=O)N[C@@H](CCCNC(=N)N)C(=O)N[C@@H](CC(N)=O)C(N)=O` [NMU-25, reference compound] (H-FRVDEEFQSPFASQSRGYFLFRPRN-NH2) here?
**A.** 21.8 nM

**Q.** And the EC50 (NMU receptor 2 (NMUR 2))?
**A.** 0.91 nM
